Results: patent publication US7098195B2, “Fluorinated glucosamine analogs useful for modulating post-translational glycosylations on cells” (Health Research, Inc., priority 2001, dated 2006)

What was measured:
[1] = test system: panel of human tumor cell lines as well as normal endothelial cells; test: Growth inhibition (IC50) of human tumor cell lines and normal endothelial cells; assay type: cell-based; settings: newly synthesized compounds compared with compounds synthesized by the original method
Source text: Before conducting experiments with newly synthesized 3- and 4-F-GlcNAc the effects of 3- and 4-F-GlcNAc on the growth of a panel of human tumor cell lines as well as normal endothelial cells (i.e. IC50 values) were first determined and compared with the original growth inhibitory action (9 Bernacki, R. J. et al. (1977) J. Supra. Stru., 7:235–250; 10 Sharma, M. and W. Korytnyk (1980) Carbohyd. Res., 79:39–51;11 Sharma, M. et al. (1990). Carbohyd. Res., 198:205–22).

[2] = previous studies; cited from earlier work
[3] = test system: human ovarian, A121, tumor cells; settings: cited from earlier work
[4] = test system: HECA-452 epitopes on PSGL-1; test: Western blot of HECA-452 epitopes on PSGL-1 of CLA+ T-cells; assay type: cell-based, human
Procedure: For analysis of CLA expression on T-cells treated with glycoconjugate modifiers, CLA^+ T-cells were first pretreated with neuraminidase (0.1 U/ml at 37° C. for 1 h) to eliminate functional CLA and cleave all HECA-452 reactive epitopes from the cell surface (35–38). Since we wanted to investigate whether these compounds directly affected CLA expression and function, neuraminidase pretreatment followed by incubations with glycosylation modifiers allowed for examination of de novo synthesized CLA/HECA-452 epitopes re-expressed on the cell surface. After neuraminidase digestion, cells were then incubated with tunicamycin (0.02 mM) (an inhibitor of GlcNAc phosphotransferase, the initial step of N-glycosylation), swainsonine (0.23 mM) (an inhibitor of α-mannosidase II and complex-type N-glycosylation), 4-F-GlcNAc (0.05 mM) (putative inhibitor of poly-N-acetyllactosamine biosynthesis), BAG (an inhibitor of O-glycan biosynthesis) (<2 mM) or GlcNAc (5 mM) (negative control, naturally-occurring metabolic counterpart of 4-F-GlcNAc)for 30 h in the presence of human recombinant IL-2. […] Concentrations for BAG were selected based on maximal O-glycosylation inhibitory effects at non-growth inhibitory concentrations as previously reported (39). To determine a suitable concentration of 4-F-GlcNAc for examining glycoconjugate-modifying effects without influencing cell growth or protein synthesis, we performed preliminary growth inhibitory experiments of cells incubated with 4-F-GlcNAc for 2 cell doublings (˜36 h) at 37° C. (cell viability assessed by Trypan-blue exclusion).
For lysate preparation, cells (including radiolabeled cells) were washed 3× in ice cold PBS and lysed in buffer containing 150 mM NaCl, 50 mM Tris-HCl pH 7.4, 1 mM EDTA, 0.02% NaAzide, 20 μg/ml PMSF, Complete™ protease inhibitors cocktail tablets (Roche Molecular Biochemicals) and 2% NP-40 (250 μl/10^8 cells). Following 2 h incubation on ice, insoluble cellular debris was pelleted by centrifugation for 30 min at 10,000×g at 4° C. and solubilized protein lysate was collected and quantified by Bradford protein assay (Sigma Chemical). SDS was added to a final concentration of 1% in lysate preparations utilized for immunoprecipitation experiments.
For SDS-PAGE and Western blotting, cell lysates, membrane proteins or immunoprecipitates were diluted and boiled in reducing sample buffer, and separated on 7–9% SDS-PAGE gels. Resolved protein was transferred to Sequi-blot™ PVDF membrane (Bio-Rad, Inc., Hercules, Calif.) and blocked with FBS for 1 hr at RT. Blots were incubated with rat IgM anti-human CLA HECA-452 (1 μg/ml), mouse IgG anti-human PSGL-1 moAbs PL-2 (1 μg/ml), 203, 4F9 and 4D8 (1 μg each/ml), or mouse IgG anti-human CD43 L60 (1 μg/ml) for 1 hr at RT. Isotype control immunoblots using either rat IgM or mouse IgG were performed in parallel to evaluate non-specific reactive proteins. After three washes with PBS/0.1%Tween-20 (10 min/wash), blots were incubated with the respective secondary Ab, AP-conjugated goat anti-rat IgM (1:400) or goat anti-mouse IgG (1:8000). AP substrate, Western Blue® (Promega, Madison, Wis.) was then added to develop blots.
Cells were then re-cultured in the presence of glycosylation inhibitor, diluent control (PBS) or molecular control (GlcNAc) for 30 hr and then harvested for CLA expression and functional analysis. […] To assess the duration of anti-carbohydrate effects on HECA-452 expression on PSGL-1, cells treated with 4-F-GlcNAc for 30 h and were then re-cultured in non-4-F-GlcNAc-containing medium for 72 h.

[5] = test system: E-selectin ligand activity of CLA+ T-lymphocytes; test: Parallel-plate flow chamber, CLA+ T-cell tethering and rolling on E-selectin chimera; assay type: cell-based, human
Procedure: (§1) To analyze the affects of 4-F-GlcNAc on the function of CLA on human T-cells, we examined the ability of 4-F-GlcNAc-treated (0.05, 0.1, 0.5 mM for 30 hrs) CLA-+ T-cells cultures to engage with immobilized E- and P-selectin chimera in the parallel-plate flow chamber. As described for flow cytometric analyses (Example 13), cells were first pretreated with neuraminidase to remove terminal sialic acid residues required for HECA-452 reactivity and for E- and P-selectin ligand activity of CLA. This approach allowed for the assessment on de novo synthesized CLA molecules.
(§2) Tethering and rolling of human T-cells on recombinant human E- and P-selectin-Ig chimera (provided by Dr. Robert Fuhlbrigge, Harvard Medical School) and human L-selectin-Ig (gift from Dr. Ray Camphausen, Wyeth/Genetics Institute, Inc., Cambridge, Mass.) were analyzed in the parallel-plate flow chamber under physiologic shear stress conditions (3). To prepare E- and P-selectin-Ig chimera spots, protein A (300 μg/15 μl 0.1M NaHCO3) was adsorbed to Ten-twenty-nine™ Petri dishes for 2 h at 37° C. Human serum albumin ([…] PBS) then added and incubated for 2 h at 37° C. to block non-specific binding sites. E-selectin-Ig (50 ng/50 μl PBS) or P-selectin-Ig (50 ng/50 μl PBS) solutions was pipetted directly over the pre-existing protein A spots for 18 h at 4° C. To prepare L-selectin-Ig spots, L-selectin-Ig (300 ng/15 μl PBS) or isotype control human IgG (300 ng/15 μl) were adsorbed directly to plastic (non-protein A-coated) for 18 h at 4° C. and blocked in 100% FBS for 2 h at 4° C.
(§3) CLA^+ T-cells or freshly isolated PBL were treated with neuraminidase and metabolic glycosylation inhibitors or with protease (bromelain) as described above, washed twice in HBSS, suspended at 2×10^6/ml in HBSS/10 mM HEPES/2 mM CaCl2 (H/H/Ca^++) and infused into the chamber over selectin chimeras. Protease treatment was performed to control for residual E-selectin activity not attributable to the expression of CLA on a protein scaffold. Cell tethering was permitted at 0.6 dynes/cm^2 for 1 min, then stepwise increments in shear stress every 15 sec were employed to a final shear stress level of 60 dynes/cm^2. The number of cells rolling/viewing field (at 100× magnification) was quantified at each level of shear stress in triplicates for a minimum of three experiments. […] Negative control experiments were performed in parallel, wherein cell binding was examined in H/H adhesion assay medium containing 5 mM EDTA as well as assaying cell binding to human IgG isotype control.
(§4) Utilizing the parallel-plate flow chamber under physiologic shear stress conditions, E-, P- and L-selectin ligand activities of human CLA^+ T-cells treated were analyzed in an identical manner as cells prepared for Western blotting and autoradiography studies.

[6] = test system: P-selectin ligand activity of CLA+ T-lymphocytes; test: Parallel-plate flow chamber, CLA+ T-cell tethering and rolling on P-selectin chimera; assay type: cell-based, human
Procedure: as §1, §2, §3, §4

[7] = test system: α-mannose (ConA staining); assay type: cell-based, human; settings: compared with PBS or GlcNAc treatments
Procedure: (§5) For lectin blotting, cell lysates (25 μg/spot) were spotted onto methanol-permeabilized PVDF membrane and blocked in FBS for 1 h at RT. Blots were then probed with AP-Canavalia ensiformis agglutinin (ConA) (2.0 μg/ml PBS; specificity: α-mannose), AP-Triticum vulgaris (Wheat germ) agglutinin (WGA) (0.5 μg/ml PBS; specificity: terminal GlcNAc or GlcNAcβ1,4GlcNAc) or AP-Lycopersicon esculentum (tomato lectin) agglutinin (LEA) (1.0 μg/ml PBS; specificity: (Galβ1,4GlcNAc)n) for 1 h at RT (All lectins from EY Labs., Inc., San Mateo, Calif.). After washing 3× in PBS/0.1% Tween-20 and 1× in PBS (10 min each), blots were developed with Western Blue®.
(§6) To analyze and identify the glycan modifications on CLA^+ T-cells treated with 4-F-GlcNAc, lectin blotting experiments were performed with ConA (Specificity: α-mannose), WGA (Specificity: terminal GlcNAc or GlcNAcβ1,4GlcNAc) and LEA (Specificity: {Galβ1,4GlcNAc}n).

[8] = test system: (Galβ1,4GlcNAc)n (LEA staining); test: Lectin blot with LEA of CLA+ T-cell lysates; assay type: cell-based, human; settings: compared with PBS or GlcNAc treatments
Procedure: as §5, §6

[9] = test system: L-selectin ligand activity of human CLA+ T-cells; test: Parallel-plate flow chamber, CLA+ T-cell rolling on L-selectin chimera; assay type: cell-based
Procedure: as §2, §3, §4

Q: Which “IC50 values, growth of tumor cell lines and normal endothelial cells” value [1] does the source give for `CC(=O)N[C@H]1C(OC(C)=O)O[C@H](COC(C)=O)[C@@H](OC(C)=O)[C@@H]1F` (stereo partly drawn) [3-F-GlcNAc, 2-acetamido-2-deoxy-1,4,6-tri-O-acetyl-3-deoxy-3-fluoro-D-glucopyranose] here?
A: identical to those that were previously described

Q: What about the dose limiting toxicity [2] of the same compound?
A: ~250 mg/kg×6 days

Q: What about the “incorporation of radiolabeled sugar precursors” value [3] of the same compound?
A: conspicuous reductions

Q: Which results are given for `CC(=O)N[C@H]1C(OCc2ccccc2)O[C@H](CO)[C@H](O)[C@@H]1O` (stereo partly shown) [BAG, benzyl-O-N-acetylgalactosamide]?
A: de novo synthesized HECA-452 epitopes on PSGL-1 (Western blot) [4]: marked reduction; effects on HECA-452 expression ([4]; concentrations below 1.0 mM, preliminary, data not shown): minimal effects; rolling adhesions on E-selectin chimera [5]: significant reductions; rolling adhesions on P-selectin chimera [6]: significant reductions; ConA staining of lysates [7]: no effect; LEA staining of lysates [8]: did not affect; rolling adhesions on L-selectin chimera [9]: significant reductions
